Experiment: Example 1: phase 3 trial, enavogliflozin 0.3 mg once a day as monotherapy vs placebo for 24 weeks in patients with type 2 diabetes (HbA1c, FPG, C-peptide, body weight, lipids, blood pressure, HOMA, UACR, UGCR, adiponectin, leptin, safety)
Format: in vivo, human
Conditions: for Adiponectin, Mean (SD) / Adiponectin, Median / HOMA-IR, Mean (SD) / HOMA-IR, Median / HOMA-β, Mean (SD) / HOMA-β, Median / Leptin, Mean (SD) / Leptin, Median / UACR, Mean (SD) / UACR, Median / UGCR, Mean (SD) / UGCR, Median / Change from baseline in HOMA-IR, ANCOVA LS mean (SE) / Change from baseline in HOMA-IR, Mean (SD) / Change from baseline in HOMA-IR, Median / Change from baseline in HOMA-β, ANCOVA LS mean (SE) / Change from baseline in HOMA-β, Mean (SD) / Change from baseline in HOMA-β, Median / Change from baseline in UACR, ANCOVA LS mean (SE) / Change from baseline in UACR, Mean (SD) / Change from baseline in UACR, Median / Change from baseline in UGCR, ANCOVA LS mean (SE) / Change from baseline in UGCR, Mean (SD) / Change from baseline in UGCR, Median / Change from baseline in adiponectin, ANCOVA LS mean (SE) / Change from baseline in adiponectin, Mean (SD) / Change from baseline in adiponectin, Median / Change from baseline in leptin, ANCOVA LS mean (SE) / Change from baseline in leptin, Mean (SD) / Change from baseline in leptin, Median / Change from baseline in HOMA-IR, ANCOVA LS mean difference / Change from baseline in HOMA-β, ANCOVA LS mean difference / Change from baseline in UACR, ANCOVA LS mean difference / Change from baseline in UGCR, ANCOVA LS mean difference / Change from baseline in adiponectin, ANCOVA LS mean difference / Change from baseline in leptin, ANCOVA LS mean difference: LOCF, full analysis set; for Adiponectin, Mean (SD) / Adiponectin, Median / HOMA-IR, Mean (SD) / HOMA-IR, Median / HOMA-β, Mean (SD) / HOMA-β, Median / Leptin, Mean (SD) / Leptin, Median / UACR, Mean (SD) / UACR, Median / UGCR, Mean (SD) / UGCR, Median / Change from baseline in HOMA-IR, ANCOVA LS mean (SE) / Change from baseline in HOMA-IR, Mean (SD) / Change from baseline in HOMA-IR, Median / Change from baseline in HOMA-β, ANCOVA LS mean (SE) / Change from baseline in HOMA-β, Mean (SD) / Change from baseline in HOMA-β, Median / Change from baseline in UACR, ANCOVA LS mean (SE) / Change from baseline in UACR, Mean (SD) / Change from baseline in UACR, Median / Change from baseline in UGCR, ANCOVA LS mean (SE) / Change from baseline in UGCR, Mean (SD) / Change from baseline in UGCR, Median / Change from baseline in adiponectin, ANCOVA LS mean (SE) / Change from baseline in adiponectin, Mean (SD) / Change from baseline in adiponectin, Median / Change from baseline in leptin, ANCOVA LS mean (SE) / Change from baseline in leptin, Mean (SD) / Change from baseline in leptin, Median: 0.3 mg; for Change from baseline in HOMA-IR, ANCOVA LS mean difference / Change from baseline in HOMA-β, ANCOVA LS mean difference / Change from baseline in UACR, ANCOVA LS mean difference / Change from baseline in UGCR, ANCOVA LS mean difference / Change from baseline in adiponectin, ANCOVA LS mean difference / Change from baseline in leptin, ANCOVA LS mean difference: 0.3 mg vs placebo
Protocol: When a subject voluntarily gave written consent to participate in this clinical trial, a screening test was conducted. […] However, when the administration of a hypoglycemic agent was interrupted before the clinical trial Visit 1 (screening), at least an 8-week washout period, including the discontinuation period, was required, and during this period, a stable diet and exercise program was followed. Naïve patients were screened without a separate washout period, and the criteria for naïve patients were defined as patients who had not been administered hypoglycemic agents within 24 weeks prior to the date of obtaining written consent. […] In addition, they were instructed to maintain regular exercise and dietary control starting from 8 weeks prior to screening without changing their daily life patterns during the clinical trial period.

OC[C@H]1O[C@@H](c2cc(Cc3ccc(C4CC4)cc3)c(Cl)c3c2CCO3)[C@H](O)[C@@H](O)[C@@H]1O [Enavogliflozin, (2S,3R,4R,5S,6R)-2-(7-chloro-6 (4-cyclopropylbenzyl)-2,3-dihydrobenzofuran-4-yl)-6-(hydroxymethyl)tetrahydro-2H-pyran-3,4,5-triol]
Occurrence rates of adverse events or adverse drug reactions compared to the control (24 weeks, vs placebo): no statistically significant differences
Adiponectin, Mean (SD) (Baseline): 7.79 µg/mL
Adiponectin, Median (Baseline): 6.22 µg/mL
HOMA-IR, Mean (SD) (Baseline): 3.47
HOMA-IR, Median (Baseline): 2.67
HOMA-β, Mean (SD) (Baseline): 46.40
HOMA-β, Median (Baseline): 36.25
Leptin, Mean (SD) (Baseline): 11.16 ng/mL
Leptin, Median (Baseline): 6.94 ng/mL
UACR, Mean (SD) (Baseline): 28200 mg/kg
UACR, Median (Baseline): 10.50 g/kg
UGCR, Mean (SD) (Baseline): 1.42 mg/mg
UGCR, Median (Baseline): 10.11 mg/mg
Adiponectin, Mean (SD) (Week 6): 7.91 µg/mL
Adiponectin, Median (Week 6): 6.67 µg/mL
Change from baseline in HOMA-IR, ANCOVA LS mean (SE) (Week 6): −1.75
Change from baseline in HOMA-IR, Mean (SD) (Week 6): −1.53
Change from baseline in HOMA-IR, Median (Week 6): −0.96
Change from baseline in HOMA-β, ANCOVA LS mean (SE) (Week 6): 3.20
Change from baseline in HOMA-β, Mean (SD) (Week 6): 3.95
Change from baseline in HOMA-β, Median (Week 6): 3.10
Change from baseline in UACR, ANCOVA LS mean (SE) (Week 6): 1.45 g/kg
Change from baseline in UACR, Mean (SD) (Week 6): 3660 mg/kg
Change from baseline in UACR, Median (Week 6): 0.80 g/kg
Change from baseline in UGCR, ANCOVA LS mean (SE) (Week 6): 55.38 mg/mg
Change from baseline in UGCR, Mean (SD) (Week 6): 53.23 mg/mg
Change from baseline in UGCR, Median (Week 6): 50.85 mg/mg
Change from baseline in adiponectin, ANCOVA LS mean (SE) (Week 6): 0.22 µg/mL
Change from baseline in adiponectin, Mean (SD) (Week 6): 0.31 µg/mL
Change from baseline in adiponectin, Median (Week 6): 0.48 µg/mL
Change from baseline in leptin, ANCOVA LS mean (SE) (Week 6): -2.82 ng/mL
Change from baseline in leptin, Mean (SD) (Week 6): -2.48 ng/mL
Change from baseline in leptin, Median (Week 6): -1.13 ng/mL
HOMA-IR, Mean (SD) (Week 6): 1.96
HOMA-IR, Median (Week 6): 1.62
HOMA-β, Mean (SD) (Week 6): 50.65
HOMA-β, Median (Week 6): 40.10
Leptin, Mean (SD) (Week 6): 8.61 ng/mL
Leptin, Median (Week 6): 5.75 ng/mL
UACR, Mean (SD) (Week 6): 32120 mg/kg
UACR, Median (Week 6): 11.30 g/kg
UGCR, Mean (SD) (Week 6): 54.67 mg/mg
UGCR, Median (Week 6): 51.06 mg/mg
Change from baseline in HOMA-IR, ANCOVA LS mean difference (Week 6): −1.81
Change from baseline in HOMA-β, ANCOVA LS mean difference (Week 6): 3.30
Change from baseline in UACR, ANCOVA LS mean difference (Week 6): 7.96 g/kg
Change from baseline in UGCR, ANCOVA LS mean difference (Week 6): 52.97 mg/mg
Change from baseline in adiponectin, ANCOVA LS mean difference (Week 6): 0.26 µg/mL
Change from baseline in leptin, ANCOVA LS mean difference (Week 6): -2.89 ng/mL
Adiponectin, Mean (SD) (Week 12): 8.57 µg/mL
Adiponectin, Median (Week 12): 6.59 µg/mL
Change from baseline in HOMA-IR, ANCOVA LS mean (SE) (Week 12): −1.60
Change from baseline in HOMA-IR, Mean (SD) (Week 12): −1.50
Change from baseline in HOMA-IR, Median (Week 12): −1.09
Change from baseline in HOMA-β, ANCOVA LS mean (SE) (Week 12): 13.51
Change from baseline in HOMA-β, Mean (SD) (Week 12): 12.44
Change from baseline in HOMA-β, Median (Week 12): 7.15
Change from baseline in UACR, ANCOVA LS mean (SE) (Week 12): -4.45 g/kg
Change from baseline in UACR, Mean (SD) (Week 12): -7760 mg/kg
Change from baseline in UACR, Median (Week 12): 0.60 g/kg
Change from baseline in UGCR, ANCOVA LS mean (SE) (Week 12): 52.58 mg/mg
Change from baseline in UGCR, Mean (SD) (Week 12): 52.43 mg/mg
Change from baseline in UGCR, Median (Week 12): 51.21 mg/mg
Change from baseline in adiponectin, ANCOVA LS mean (SE) (Week 12): 0.94 µg/mL
Change from baseline in adiponectin, Mean (SD) (Week 12): 0.78 µg/mL
Change from baseline in adiponectin, Median (Week 12): 0.65 µg/mL
Change from baseline in leptin, ANCOVA LS mean (SE) (Week 12): -2.35 ng/mL
Change from baseline in leptin, Mean (SD) (Week 12): -2.38 ng/mL
Change from baseline in leptin, Median (Week 12): -1.15 ng/mL
HOMA-IR, Mean (SD) (Week 12): 1.97
HOMA-IR, Median (Week 12): 1.53
HOMA-β, Mean (SD) (Week 12): 58.83
HOMA-β, Median (Week 12): 42.30
Leptin, Mean (SD) (Week 12): 8.78 ng/mL
Leptin, Median (Week 12): 6.26 ng/mL
UACR, Mean (SD) (Week 12): 20430 mg/kg
UACR, Median (Week 12): 11.15 g/kg
UGCR, Mean (SD) (Week 12): 53.85 mg/mg
UGCR, Median (Week 12): 51.70 mg/mg
Change from baseline in HOMA-IR, ANCOVA LS mean difference (Week 12): −1.72
Change from baseline in HOMA-β, ANCOVA LS mean difference (Week 12): 12.09
Change from baseline in UACR, ANCOVA LS mean difference (Week 12): -15.16 g/kg
Change from baseline in UGCR, ANCOVA LS mean difference (Week 12): 51.21 mg/mg
Change from baseline in adiponectin, ANCOVA LS mean difference (Week 12): 0.67 µg/mL
Change from baseline in leptin, ANCOVA LS mean difference (Week 12): -3.17 ng/mL
Adiponectin, Mean (SD) (Week 18): 8.62 µg/mL
Adiponectin, Median (Week 18): 6.76 µg/mL
Change from baseline in HOMA-IR, ANCOVA LS mean (SE) (Week 18): −1.55
Change from baseline in HOMA-IR, Mean (SD) (Week 18): −1.48

From patent US20260130933A1, “PHARMACEUTICAL COMPOSITION FOR PREVENTION OR TREATMENT OF NEPHROPATHY AND/OR DIABETES MELLITUS, COMPRISING ENAVOGLIFLOZIN” (DAEWOONG PHARMACEUTICAL CO., LTD., priority 2022, published 2026)
